Key:
[1] = target: T1, recombinant human 5-LO enzyme (Homo sapiens, UniProt P09917); assay: Direct 5-LO inhibitory activity in a cell-free assay (H2DCF-DA fluorescence); format: biochemical; settings: cell-free, recombinant human 5-LO; read-out: Inhibitory Activity IC50, Human recomb. 5-LO
T1 sequence (P09917 1-674): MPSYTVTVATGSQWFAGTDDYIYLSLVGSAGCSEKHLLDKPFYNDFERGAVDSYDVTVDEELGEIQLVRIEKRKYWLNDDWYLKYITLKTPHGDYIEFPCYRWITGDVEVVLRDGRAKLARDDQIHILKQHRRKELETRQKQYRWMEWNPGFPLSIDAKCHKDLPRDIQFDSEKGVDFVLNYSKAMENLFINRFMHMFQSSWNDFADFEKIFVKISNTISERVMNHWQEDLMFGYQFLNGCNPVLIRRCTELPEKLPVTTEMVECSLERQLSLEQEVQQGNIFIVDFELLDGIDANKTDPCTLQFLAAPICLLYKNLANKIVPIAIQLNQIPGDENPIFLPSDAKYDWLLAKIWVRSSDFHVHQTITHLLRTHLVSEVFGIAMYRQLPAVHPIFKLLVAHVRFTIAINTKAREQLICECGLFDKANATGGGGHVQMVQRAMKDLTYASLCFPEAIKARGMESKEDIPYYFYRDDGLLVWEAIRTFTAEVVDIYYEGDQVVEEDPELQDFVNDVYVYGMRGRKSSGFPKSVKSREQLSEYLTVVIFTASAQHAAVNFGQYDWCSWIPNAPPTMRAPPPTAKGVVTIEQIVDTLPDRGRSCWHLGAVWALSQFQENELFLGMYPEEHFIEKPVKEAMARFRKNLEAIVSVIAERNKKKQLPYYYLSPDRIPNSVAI
Protocol: H2DCF-DA (60 μM) was first pre-cleaved by incubating with 450 mU/ml recombinant human 5-LO enzyme in Tris buffer (containing 50 mM Tris, pH=7.5, 2 mM EDTA, 2 mM CaCl2), 1 mM dithiothreitol (DTT) and 0.6 U/ml glutathione peroxidase) for 10 min at room temperature. […] After 10 min incubation at room temperature, the reaction was started with the addition of 50 μl of the substrate solution (Tris buffer containing 20 μM ATP and 20 μM arachidonic acid). After a further 20 min, the reaction was terminated with 100 μl acetonitrile. Fluorescence was read at 500 nm excitation and 520 emission, with Novostar® microplate reader (BMG Labtech, Offenburg, Germany). Appropriate controls, including 100 μM nordihydroguaiaretic acid (NDGA), were included to isolate only the 5-LO-attributable, NDGA-inhibitable RFU values.

[2] = test system: isolated human monocytes; assay: In vitro toxicity testing (MTT viability); format: cell-based; settings: concentrations up to 50 μM, 3 h or 24 h, n=3
Protocol: In Vitro Toxicity Testing: Adherent human monocytes, prepared as described above, were used. The cells were cultured with various concentrations of the test compounds or vehicle, or with 0.05% Triton-X as positive control for 3 h or 24 h. At the end of the culture, cell viability was determined using the MTT (3-(4,5 dimethylthiazol-2-yl)-2,5-diphenyltetrazolium bromide) assay method. Briefly, 15 μl of the MTT solution (5 mg/ml) was added to each well, and incubated at 37° C. for 4 h. After removing the supernatant, 200 μl of dimethylsulfoxide (DMSO) was added to dissolve the crystals. Absorbance at 570 nm was then measured in a microplate reader. Viability was expressed as percentage of the vehicle-treated cells.

[3] = test system: degranulation of bone marrow-derived mouse mast cells; assay: Inhibition of degranulation (β-hexoseaminidase release) in allergen/IgE-activated BMMC; format: cell-based; settings: anti-DNP IgE sensitized, DNP-BSA 30 ng/ml, 30 min
Text: (§1) Inhibition of LTC4 release and degranulation in allergen/IgE-activated bone marrow-derived mouse mast cells (BMMC): Bone marrow-derived mast cells (BMMC) were generated from pathogen-free 5-7 week old male Balb/c mice according to the method of Davis et al., [2004] (Davis, B. J., et al., (2004), Journal of Immunology, 173: 6914-6920). Essentially, bone marrow cells were obtained by flushing of the femoral bone marrow and cultured in RPMI 1640 medium supplemented with 10% FBS, 100 U/ml penicillin, and 100 μg/ml streptomycin, 25 mM HEPES, 1.0 mM sodium pyruvate, 0.1 mM nonessential amino acids, 0.0035% 2-mercaptoethanol, and 30 ng/ml mouse recombinant IL-3, with culture medium replaced every two days. Cells were used after 4-8 weeks of culture, by which time at least 97% of the cells would have differentiated into mast cells.
The generated BMMCs were seeded at 5×10^4 cells/well in a 96-well flat-bottom culture plate and passively sensitized overnight with 0.5 μg/ml anti-DNP monoclonal IgE antibody (clone SPE-7, Sigma-Aldrich, St. Louis, Mo., USA). The cells were then washed twice to remove any unbound antibody and subsequently re-suspended in reaction buffer (135 mM NaCl, 5 mM KCl, 1.8 mM CaCl2), 1 mM MgCl2, 5.6 mM glucose, 0.05% BSA and 20 mM HEPES, pH 7.4). […] After 30 min incubation at 37° C., the amount of LTC4 released into the supernatant (as index of 5-LO activity) was determined by ELISA as described below.
The concurrently-released granular enzyme, β-hexoseaminidase (as index of degranulation) was determined as described below.
The beta-hexoseaminidase released into the supernatant by the degranulating BMMCs was determined colorimetrically using p-nitrophenyl-N-acetyl-β-D-glucosaminide as substrate. […] The absorbance of the colored product (p-nitrophenol) was then read at 405 nm in a microplate reader. Results were expressed as percentage of the total cell content (determined in cells lysed with 0.1% triton-x-100).

[4] = test system: zymosan-induced peritonitis; assay: Zymosan-induced peritoneal inflammation in mice; format: in vivo, mouse; settings: 30 min before zymosan i.p., peritoneal exudate at 2 h
Text: Inhibition of zymosan-induced peritoneal inflammation in mice: Female Balb/c mice, 6-8 weeks old, obtained from the Animal Resources Center of the Health Sciences Center, Kuwait University, were used. They were maintained under temperature-controlled conditions with an artificial 12-h light/dark cycle and allowed standard chow and water ad libitum. The study protocol was approved by the “Health Sciences Center Animal Welfare Committee” and complied with the “Guidelines for the Care and Use of Laboratory Animals” of the Health Sciences Centre, Kuwait University. The zymosan-induced peritonitis model-a recognized LT-mediated inflammatory reaction, described particularly in Hanke et al., 2013 ([…]., et al. (2013). Journal of medicinal chemistry, 56(22), 9031-9044) was used. […] After 30 min, all groups were injected intraperitonally with 0.2 ml of activated zymosan (2 mg/ml) except the control group that received 0.2 ml PBS. After 2 h, all animals were killed and the peritoneal exudate was collected by washing the cavity with 3 ml of heparinized (10 IU/ml) PBS.

[5] = test system: LTC4 release from IgE/antigen-activated mouse mast cells (BMMC); assay: Inhibition of LTC4 release in allergen/IgE-activated bone marrow-derived mouse mast cells; format: cell-based; settings: BMMC, anti-DNP IgE sensitized, DNP-BSA 30 ng/ml, 30 min
Text: as §1
The generated BMMCs were seeded at 5×10^4 cells/well in a 96-well flat-bottom culture plate and passively sensitized overnight with 0.5 μg/ml anti-DNP monoclonal IgE antibody (clone SPE-7, Sigma-Aldrich, St. Louis, Mo., USA). The cells were then washed twice to remove any unbound antibody and subsequently re-suspended in reaction buffer (135 mM NaCl, 5 mM KCl, 1.8 mM CaCl2), 1 mM MgCl2, 5.6 mM glucose, 0.05% BSA and 20 mM HEPES, pH 7.4). They were then pre-incubated with the test compounds (0.01-30 μM) or the solvent (0.05% DMSO) for 15 min before being stimulated with the specific antigen, DNP-BSA (30 ng/ml). After 30 min incubation at 37° C., the amount of LTC4 released into the supernatant (as index of 5-LO activity) was determined by ELISA as described below.
Assay of released leukotrienes/β-hexoseaminidase enzyme: Appropriately diluted supernatants were assayed for the released LTs (LTB4 and LTC4), by the enzyme immunoassay (EIA) method using assay kits supplied by R&D Systems (Minneapolis, Minn., USA) and following the manufacturer's instructions.

Compound | IC50 [1] | melting point | Effect on viability of isolated human monocytes (MTT) [2] | Inhibition of degranulation (release of granular β-hexoseaminidase) (FIG. 2B) [3] | Net Exudate Vol ([4]; 10 mg/kg s.c.) | Total Cell No ([4]; 10 mg/kg s.c.) | Total LTC4 ([4]; 10 mg/kg s.c.) | Net Exudate Vol ([4]; 30 mg/kg s.c.) | Total Cell No ([4]; 30 mg/kg s.c.) | Total LTC4 ([4]; 30 mg/kg s.c.) | Inhibition of generation of LTC4 from IgE/allergen-activated mast cells (FIG. 2A) [5]
CCCCCC(=O)N(O)C[C@H]1CN(c2ccc(N3CCOCC3)c(F)c2)C(=O)O1 [PH-247, (R)—N-((3-(3-fluoro-4-morpholinophenyl)-2-oxooxazolidin-5-yl)methyl)-N-hydroxyhexanamide] | 3.4 µM | 118.5 to 120.5 °C | no significant effect on cell viability |  |  |  |  |  |  |  | 
CCCCCCC(=O)N(O)C[C@H]1CN(c2ccc(N3CCOCC3)c(F)c2)C(=O)O1 [PH-249, (R)—N-((3-(3-fluoro-4-morpholinophenyl)-2-oxooxazolidin-5-yl)methyl)-N-hydroxyheptanamide] | 1.9 µM | 123 to 125 °C | no significant effect on cell viability | able to inhibit degranulation | 0.16 ± 0.08 mL | 39.7 ± 6.6 ×10^6 | 107.2 ± 51.6 ng | 0.06 ± 0.01 mL | 17.8 ± 2.2 ×10^6 | 102.8 ± 20.9 ng | equally effective in inhibiting the generation of LTC4

— patent US11608320B2, “Oxazolidinone hydroxamic acid derivatives” (KUWAIT UNIVERSITY, priority 2020, dated 2023)
